Data on 13 compounds can be found in patent US8658791B2, “2-substituted-6-amino-5-alkyl, alkenyl or alkynyl-4-pyrimidinecarboxylic acids and 6-substituted-4-amino-3-alkyl, alkenyl or alkynyl picolinic acids and their use as herbicides” (Dow AgroSciences, LLC, priority 2007, dated 2014).

What all share (type): in vivo
The subject of test [1] is lambsquarter (Chenopodium album). Nature of the test: General postemergence herbicidal activity, CHEAL. As to conditions: Chenopodium album, post-emergence, 336 h, postemergence spray, visual score after 14 days, 0 = no injury, 100 = complete kill, read-out: Post-emergent Weed Control CHEAL; for pest or weed control at 280 g/ha: 280 g ai/ha; for pest or weed control at 140 g/ha: 140 g ai/ha. As for the experimental part: (§1) Seeds or nutlets of the desired test plant species were planted in Sun Gro MetroMix® 306 planting mixture, which typically has a pH of 6.0 to 6.8 and an organic matter content of about 30 percent, in plastic pots with a surface area of 103 square centimeters. When required to ensure good germination and healthy plants, a fungicide treatment and/or other chemical or physical treatment was applied. The plants were grown for 7-21 days in a greenhouse with an approximate 15 hour photoperiod which was maintained at about 23-29° C. during the day and 22-28° C. during the night. Nutrients and water were added on a regular basis and supplemental lighting was provided with overhead metal halide 1000-Watt lamps as necessary. The plants were employed for testing when they reached the first or second true leaf stage.
(§2) A weighed amount, determined by the highest rate to be tested, of each test compound was placed in a 25 mL glass vial and was dissolved in 4 mL of a 97:3 v/v (volume/volume) mixture of acetone and dimethyl sulfoxide (DMSO) to obtain concentrated stock solutions. […] The concentrated stock solutions obtained were diluted with 20 mL of an aqueous mixture containing acetone, water, isopropyl alcohol, DMSO, Atplus 411F crop oil concentrate, and Triton® X-155 surfactant in a 48.5:39:10:1.5:1.0:0.02 v/v ratio to obtain spray solutions containing the highest application rates. Additional application rates were obtained by serial dilution of 12 mL of the high rate solution into a solution containing 2 mL of 97:3 v/v (volume/volume) mixture of acetone and dimethyl sulfoxide (DMSO) and 10 mL of an aqueous mixture containing acetone, water, isopropyl alcohol, DMSO, Atplus 411F crop oil concentrate, and Triton X-155 surfactant in a 48.5:39:10:1.5:1.0:0.02 v/v ratio to obtain 1/2X, 1/4X, 1/8X and 1/16X rates of the high rate. Compound requirements are based upon a 12 mL application volume at a rate of 187 L/ha. Formulated compounds were applied to the plant material with an overhead Mandel track sprayer equipped with a 8002E nozzles calibrated to deliver 187 L/ha over an application area of 0.503 square meters at a spray height of 18 inches (43 cm) above the average plant canopy height. Control plants were sprayed in the same manner with the solvent blank.
(§3) The treated plants and control plants were placed in a greenhouse as described above and watered by sub-irrigation to prevent wash-off of the test compounds. After 14 days, the condition of the test plants as compared with that of the untreated plants was determined visually and scored on a scale of 0 to 100 percent where 0 corresponds to no injury and 100 corresponds to complete kill.

Test [2] concerns velvetleaf (Abutilon theophrasti). In words: General postemergence herbicidal activity, ABUTH. The following applies: Abutilon theophrasti, post-emergence, 336 h, postemergence spray, visual score after 14 days, 0 = no injury, 100 = complete kill, read-out: Post-emergent Weed Control ABUTH; for pest or weed control at 280 g/ha: 280 g ai/ha; for pest or weed control at 140 g/ha: 140 g ai/ha. As for the experimental part:
as §1, §2, §3

The test system of test [3] is wild poinsettia (Euphorbia heterophylla). Nature of the test: General postemergence herbicidal activity, EPHHL. The following applies: Euphorbia heterophylla, post-emergence, 336 h, postemergence spray, visual score after 14 days, 0 = no injury, 100 = complete kill, read-out: Post-emergent Weed Control EPHHL; for pest or weed control at 280 g/ha: 280 g ai/ha; for pest or weed control at 140 g/ha: 140 g ai/ha. As for the experimental part: as §1, §2, §3

The subject of test [4] is rice (Oryza sativa). In words: General postemergence herbicidal activity, ORYSA. The following applies: Oryza sativa, post-emergence, 336 h, postemergence spray, visual score after 14 days, 0 = no injury, 100 = complete kill, read-out: Post-emergent Weed Control ORYSA; for plant injury at 280 g/ha: 280 g ai/ha; for plant injury at 140 g/ha: 140 g ai/ha. As for the experimental part:
as §1, §2, §3

For test [5], the system named is barnyardgrass (Echinochloa crus-galli). Nature of the test: General postemergence herbicidal activity, ECHCG. As to conditions: Echinochloa crus-galli, post-emergence, 336 h, postemergence spray, visual score after 14 days, 0 = no injury, 100 = complete kill, read-out: Post-emergent Weed Control ECHCG; for pest or weed control at 280 g/ha: 280 g ai/ha; for pest or weed control at 140 g/ha: 140 g ai/ha. As for the experimental part:
as §1, §2, §3

For the compound `COC(=O)c1nc(-c2ccc(Cl)c(OC)c2F)nc(N)c1C(C)=O` [Compound 32, 5-Acetyl-6-amino-2-(4-chloro-2-fluoro-3-methoxyphenyl)-pyrimidine-4-carboxylic acid methyl ester], the pest or weed control at 280 g/ha was 70% in test [1], 70% in test [2], 100% in test [3] and 0% in test [5]. Moreover, in test [4], the plant injury at 280 g/ha came to 0%.
As to `COC(=O)c1nc(-c2ccc(Cl)c(OC)c2F)nc(N)c1C=O` [Compound 33, 6-Amino-2-(4-chloro-2-fluoro-3-methoxyphenyl)-5-formyl-pyrimidine-4-carboxylic acid methyl ester], the pest or weed control at 229 g/ha turned out to be 50% in test [1] (229 g ai/ha), 80% in test [2] (229 g ai/ha), 100% in test [3] (229 g ai/ha) and 0% in test [5] (229 g ai/ha). For the same compound, the plant injury at 229 g/ha in test [4] (229 g ai/ha) came to 0%.
On to `COC(=O)c1nc(-c2ccc(Cl)c(OC)c2F)cc(N)c1C=O` [Compound 34, 4-Amino-6-(4-chloro-2-fluoro-3-methoxyphenyl)-3-formylpyridine-2-carboxylic acid methyl ester], for which the pest or weed control at 280 g/ha in test [1] turned out to be 90%; in test [2], 100%; in test [3], 95%; in test [5], 95%. Besides, the plant injury at 280 g/ha in test [4] is 0%.
Turning to `COC(=O)c1nc(-c2ccc(Cl)c(OC)c2F)nc(N)c1C(F)F` [Compound 35, 6-Amino-2-(4-chloro-2-fluoro-3-methoxy-phenyl)-5-difluoromethylpyrimidine-4-carboxylic acid methyl ester], the pest or weed control at 280 g/ha in test [1] is 85%; in test [2] it was 75%; in test [3], 90%; in test [5] it was 0%. In test [4], the plant injury at 280 g/ha is 0%.
As to `COC(=O)c1nc(-c2ccc(Cl)c(OC)c2F)cc(N)c1C(F)F` [Compound 36, 4-Amino-6-(4-chloro-2-fluoro-3-methoxyphenyl)-3-difluoromethylpyridine-2-carboxylic acid methyl ester], the pest or weed control at 280 g/ha in test [1] amounted to 95%; in test [2] it was 100%; in test [3], 95%; in test [5] it was 95%. Further, the plant injury at 280 g/ha in test [4] came to 0%.
`COC(=O)c1nc(-c2ccc(Cl)c(OC)c2F)nc(N)c1/C=C/Br` [Compound 37, 6-Amino-5-((E)-2-bromovinyl)-2-(4-chloro-2-fluoro-3-methoxyphenyl)pyrimidine-4-carboxylic acid methyl ester]: the pest or weed control at 280 g/ha in test [1] is 90%; in test [2], 80%; in test [3] it was 90%; in test [5], 0%. Further, the plant injury at 280 g/ha in test [4] came out at 10%.
Regarding `COC(=O)c1nc(-c2ccc(Cl)c(OC)c2F)nc(N)c1/C=C/SC` [Compound 38, 6-Amino-2-(4-chloro-2-fluoro-3-methoxyphenyl)-5-((E)-2-methylsulfanylvinyl)pyrimidine-4-carboxylic acid methyl ester], the pest or weed control at 280 g/ha is 100% in test [1], 90% in test [2], 100% in test [3] and 60% in test [5]. Moreover, the plant injury at 280 g/ha in test [4] came out at 0%.
For the compound `COC(=O)c1nc(-c2ccc(Cl)c(OC)c2F)nc(N)c1C(C)F` (centres unmarked) [Compound 39, 6-Amino-2-(4-chloro-2-fluoro-3-methoxyphenyl)-5-(1-fluoroethyl)pyrimidine-4-carboxylic acid methyl ester], the pest or weed control at 140 g/ha in test [1] worked out at 60%; in test [2], 80%; in test [3], 85%; in test [5], 30%. Besides, the plant injury at 140 g/ha in test [4] was 0%.
Regarding `C=Cc1c(N)nc(-c2ccc(Cl)c(OC(F)F)c2F)nc1C(=O)O` [Compound 50, 6-Amino-2-(4-chloro-3-difluoromethoxy-2-fluorophenyl)-5-vinylpyrimidine-4-carboxylic acid], the pest or weed control at 280 g/ha was 100% in test [1], 95% in test [2], 100% in test [3] and 100% in test [5]. Besides, the plant injury at 280 g/ha in test [4] stood at 45%.
For `C=Cc1c(N)nc(-c2ccc(Cl)c(N(C)C)c2F)nc1C(=O)O` [Compound 51, 6-Amino-2-(4-chloro-3-dimethylamino-2-fluorophenyl)-5-vinylpyrimidine-4-carboxylic acid], the pest or weed control at 140 g/ha in test [1] is 100%; in test [2], 100%; in test [3], 90%; in test [5], 95%. Further, the plant injury at 140 g/ha in test [4] worked out at 60%.
Consider `C=C(F)c1c(N)nc(-c2ccc(Cl)c(OC)c2F)nc1C(=O)O` [Compound 52, 6-Amino-2-(4-chloro-2-fluoro-3-methoxyphenyl)-5-(1-fluorovinyl)pyrimidine-4-carboxylic acid], for which the pest or weed control at 140 g/ha in test [1] was 95%; in test [2], 95%; in test [3] it was 100%; in test [5], 90%. Moreover, the plant injury at 140 g/ha in test [4] is 65%.
Consider `CCc1c(N)nc(-c2ccc(Cl)c(OC)c2F)nc1C(=O)O` [Compound 54, 6-Amino-2-(4-chloro-2-fluoro-3-methoxyphenyl)-5-ethylpyrimidine-4-carboxylic acid], for which the pest or weed control at 280 g/ha in test [1] was 100%; in test [2], 90%; in test [3], 100%; in test [5], 90%. Also, the plant injury at 280 g/ha in test [4] worked out at 0%.
For the compound `C#Cc1c(N)nc(-c2ccc(Cl)c(OC)c2F)nc1C(=O)O` [Compound 56, 6-Amino-2-(4-chloro-2-fluoro-3-methoxyphenyl)-5-ethynylpyrimidine-4-carboxylic acid], the pest or weed control at 140 g/ha in test [1] worked out at 95%; in test [2] it was 80%; in test [3] it was 90%; in test [5], 75%. Moreover, the plant injury at 140 g/ha in test [4] worked out at 0%.
